Experimental data reported in patent US12351877B2, “Systems and methods for determining a treatment course of action” (Arizona Board of Regents on Behalf of the University of …, priority 2018, dated 2025).

Assays:
[1] = system: Caco-2 human intestinal epithelial cells; experiment: Leading edge kymography before and after dissolving SCABs; assay type: cell-based; conditions: 25 μM ROCK inhibitor, dissolution of SCABs
Text: (§1) The relationship between cortical contractility and membrane motility dynamics was further examined. Using live-cell Total Internal Reflection Fluorescence Microscopy (TIRFM), SCABs at the leading edge of MCF7 and T47D cells were imaged before and after inhibiting contractility using the ROCK inhibitor, Y-27632; the actin cytoskeleton was labeled with iRFP-Lifeact, and SCABs with MLC-mRuby2. […] In addition, the existence of SCABs, their contractile nature, and their suppressive effects were validated in two types of epithelial cells: MDCK canine kidney epithelial cells, and Caco-2 human intestinal epithelial cells (FIGS. 3c and 3d). […] ER is potentially enriching for SCABs by inducing the expression of actin regulators that promote SCAB formation.

[2] = system: MDCK canine kidney epithelial cells; experiment: as above; assay type: cell-based; conditions: 25 μM ROCK inhibitor, dissolution of SCABs
Text: as §1

[3] = system: MCF7 cells; experiment: Live-cell TIRFM of SCABs before and after inhibiting contractility; assay type: cell-based, human; conditions: 25 uM ROCK inhibitor
Text: as §1

[4] = system: T47D cells; experiment: as above; assay type: cell-based, human; conditions: 25 uM ROCK inhibitor
Text: as §1

C[C@@H](N)[C@H]1CC[C@H](C(=O)Nc2ccncc2)CC1 [Y-27632]
motility dynamics of the leading edge [1]: dramatically increased
motility dynamics of the leading edge ([1]; listed as ROCK inhibitor): increased
motility dynamics of the leading edge [2]: dramatically increased
motility dynamics of the leading edge ([2]; listed as ROCK inhibitor): increased
SCABs [3]: dissolution of SCABs
MLC at the leading edge ([3]; MLC-mRuby2): loss of MLC
protrusive activity ([3]; iRFP-Lifeact): rapid increase
SCABs [4]: dissolution of SCABs
MLC at the leading edge ([4]; MLC-mRuby2): loss of MLC
protrusive activity ([4]; iRFP-Lifeact): rapid increase
